From patent US11332485B2, “Penicillin-binding protein inhibitors” (priority 2017, dated 2022)

Tests used:
[1] = target: T1, PBP3 from Escherichia coli (Escherichia coli, UniProt P0AD68); test: Fluorescence polarization competition binding assay with Bocillin-FL
T1 construct: made in house
Excerpt: To determine the ability of boronic acid-based test PBP inhibitors to bind Penicillin Binding Proteins (PBPs), Bocillin-FL (fluorescently-labeled penicillin V; ThermoFisher Scientific) was used in a fluorescence polarization (FP) competition binding assay to assess boronic acid PBP inhibitor binding to PBP3 from Escherichia coli. PBP3 from Escherichia coli was cloned and purified as described previously (King, D. T, et al., ACS Infectious Diseases 2015, 1, 175-184). To establish assay conditions for competition binding, an enzyme titration/saturation binding experiment was performed. Bocillin-FL was prepared at […] in a buffer comprised of 50 mM Hepes (pH 8.0), 300 mM NaCl and 5% (v/v) glycerol. Saturation binding was performed by mixing […] of PBP3 ranging in concentrations from […] with 40 μl of the 0.2 μM Bocillin-FL solution, in individual wells of a black 384-well microplate. FP was measured immediately upon addition of PBP3 (Ex, Em), using a Cytation3 (BioTek) microplate reader and measured continuously for 60 minutes. […] The competition binding assay was validated using the beta-lactam ampicillin, with Bocillin-FL at a final concentration of 0.1 μM, PBP3 at a final concentration of 1.5 μM and concentrations of ampicillin from 0-1000 μM. PBP3 was incubated with ampicillin at different concentrations in a black 384-well microplate (Corning) for 30 minutes, then Bocillin-FL added and the FP immediately measured for 60 minutes. […] Binding assays for boronic acid PBP inhibitors were performed in an identical fashion. Representative results are shown in Table 3, where A represents a potency of >500 μM, B represents a potency between 30 μM and 500 μM inclusive, and C represents a potency of <30 μM. NT=Not Tested.

[2] = test system: S. aureus ATCC 29213; test: Broth microdilution MIC assay; assay type: cell-based; conditions: Staphylococcus aureus, ATCC29213; broth microdilution, 16-20 hours at 37° C.; read-out: S. aureus 29213 MIC
How it was run: (§1)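 Visual no-growth endpoint defines the MIC. Inoculum of 5×10^5 CFU/mL in divalent-cation-supplemented Mueller-Hinton broth was exposed to 2-fold dilution series of compound, then incubated 16-20 hours at 37° C per CLSI.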

[3] = test system: hyper-permeable E. coli 901C; test: Broth microdilution MIC assay; assay type: cell-based; conditions: Escherichia coli, read-out: E. coli 901C MIC
How it was run: as §1

[4] = test system: E. coli DH5α/pLBII; test: Broth microdilution MIC assay, empty vector control strain; assay type: cell-based; conditions: Escherichia coli, read-out: E. coli DH5α/pLBII Microbiological Activity (MIC)
How it was run: (§2)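 CLSI broth microdilution in cation-supplemented Mueller-Hinton broth, 2-fold compound dilutions, 5×10^5 CFU/mL inoculum, 16-20 h at 37° C, MIC read visually as lowest concentration without growth. E. coli DH5α carries CTX-M15 on pLBII under Lac promoter, or empty pLBII as control.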

[5] = test system: E. coli DH5α/pLBII-CTX-M15; test: Broth microdilution MIC assay, engineered strain producing CTX-M15; assay type: cell-based, Escherichia coli; conditions: Escherichia coli, read-out: E. coli DH5α/pLBII-CTX-M15 Microbiological Activity (MIC)
How it was run: as §2

T1 sequence (P0AD68 1-577): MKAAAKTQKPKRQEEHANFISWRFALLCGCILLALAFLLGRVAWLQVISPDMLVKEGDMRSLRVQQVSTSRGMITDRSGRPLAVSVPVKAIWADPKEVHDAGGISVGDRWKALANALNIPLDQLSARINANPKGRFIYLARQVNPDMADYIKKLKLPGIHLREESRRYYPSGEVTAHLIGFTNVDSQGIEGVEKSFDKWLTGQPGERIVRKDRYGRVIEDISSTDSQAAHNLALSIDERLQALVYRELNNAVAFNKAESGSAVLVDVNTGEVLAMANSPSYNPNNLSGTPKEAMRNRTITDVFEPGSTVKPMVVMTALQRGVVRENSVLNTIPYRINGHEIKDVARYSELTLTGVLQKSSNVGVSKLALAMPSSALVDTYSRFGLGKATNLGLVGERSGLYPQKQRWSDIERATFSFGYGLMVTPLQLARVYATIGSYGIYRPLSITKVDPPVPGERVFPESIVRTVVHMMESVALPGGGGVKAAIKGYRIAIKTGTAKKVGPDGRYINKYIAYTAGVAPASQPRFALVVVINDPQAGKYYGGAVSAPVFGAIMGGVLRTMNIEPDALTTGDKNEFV

Compound	EC50 [1] [µM]	MIC [2] [µg/mL]	MIC [3] [µg/mL]	MIC [4] [µg/mL]	MIC [5] [µg/mL]
Nc1nc(C(NC(=O)N2CCN(CCO)C(=O)C2=O)C(=O)N[C@H]2Cc3cccc(C(=O)O)c3OB2O)cs1 (stereo partly drawn) [Example 60, (3R)-3-(2-(2-aminothiazol-4-yl)-2-(4-(2-hydroxyethyl)-2,3-dioxopiperazine-1-carboxamido)acetamido)-2-hydroxy-3,4-dihydro-2H-benzo[e][1,2]oxaborinine-8-carboxylic acid]	30 to 500	64 to 128	< 64	8 to 16	8 to 16
CCN1CCN(C(=O)N[C@H](CCO)C(=O)N[C@H]2Cc3cccc(C(=O)O)c3OB2O)C(=O)C1=O [Example 59, (R)-3-((R)-2-(4-ethyl-2,3-dioxopiperazine-1-carboxamido)-4-hydroxybutanamido)-2-hydroxy-3,4-dihydro-2H-benzo[e][1,2]oxaborinine-8-carboxylic acid]	> 500	> 128	< 64	32 to 64	32 to 64
CCN1CCN(C(=O)N[C@H](CCC(N)=O)C(=O)N[C@H]2Cc3cccc(C(=O)O)c3OB2O)C(=O)C1=O [Example 50, (R)-3-((R)-5-amino-2-(4-ethyl-2,3-dioxopiperazine-1-carboxamido)-5-oxopentanamide)-2-hydroxy-3,4-dihydro-2H-benzo[e][1,2]oxaborinine-8-carboxylic acid]	> 500	> 128	< 64	32 to 64	32 to 64
CC(C)CN1CCN(C(=O)NC(C(=O)N[C@H]2Cc3cccc(C(=O)O)c3OB2O)c2csc(N)n2)C(=O)C1=O (stereo partly drawn) [Example 66, (3R)-3-(2-(2-aminothiazol-4-yl)-2-(4-isobutyl-2,3-dioxopiperazine-1-carboxamido)acetamido)-2-hydroxy-3,4-dihydro-2H-benzo[e][1,2]oxaborinine-8-carboxylic acid]	30 to 500	64 to 128	< 64	32 to 64	32 to 64
NCCN1CCN(C(=O)NC(C(=O)N[C@H]2Cc3cccc(C(=O)O)c3OB2O)c2csc(N)n2)C(=O)C1=O (stereo partly drawn) [Example 58, (3R)-3-(2-(4-(2-aminoethyl)-2,3-dioxopiperazine-1-carboxamido)-2-(2-aminothiazol-4-yl)acetamido)-2-hydroxy-3,4-dihydro-2H-benzo[e][1,2]oxaborinine-8-carboxylic acid]	30 to 500	> 128	< 64	32 to 64	32 to 64
Nc1nc(C(NC(=O)N2CCN(O)C(=O)C2=O)C(=O)N[C@H]2Cc3cccc(C(=O)O)c3OB2O)cs1 (stereo partly drawn) [Example 72, (3R)-3-(2-(2-aminothiazol-4-yl)-2-(4-hydroxy-2,3-dioxopiperazine-1-carboxamido)acetamido)-2-hydroxy-3,4-dihydro-2H-benzo[e][1,2]oxaborinine-8-carboxylic acid]	30 to 500	64 to 128	< 64	128 to 256	128 to 256
CCN1CCN(C(=O)NC(C(=O)N[C@H]2Cc3cccc(C(=O)O)c3OB2O)c2csc(N)n2)CC1=O (stereo partly drawn) [Example 62, (3R)-3-(2-(2-aminothiazol-4-yl)-2-(4-ethyl-3-oxopiperazine-1-carboxamido)acetamido)-2-hydroxy-3,4-dihydro-2H-benzo[e][1,2]oxaborinine-8-carboxylic acid]	30 to 500	> 128	< 64	128 to 256	128 to 256
Nc1nc(C(NC(=O)N2CCN(CCF)C(=O)C2=O)C(=O)N[C@H]2Cc3cccc(C(=O)O)c3OB2O)c(Cl)s1 (stereo partly drawn) [Example 57, (3R)-3-(2-(2-amino-5-chlorothiazol-4-yl)-2-(4-(2-fluoroethyl)-2,3-dioxopiperazine-1-carboxamido)acetamido)-2-hydroxy-3,4-dihydro-2H-benzo[e][1,2]oxaborinine-8-carboxylic acid]	30 to 500	> 128	< 64	8 to 16	8 to 16
COCCN1CCN(C(=O)NC(C(=O)N[C@H]2Cc3cccc(C(=O)O)c3OB2O)c2csc(N)n2)C(=O)C1=O (stereo partly drawn) [Example 61, (3R)-3-(2-(2-aminothiazol-4-yl)-2-(4-(2-methoxyethyl)-2,3-dioxopiperazine-1-carboxamido)acetamido)-2-hydroxy-3,4-dihydro-2H-benzo[e][1,2]oxaborinine-8-carboxylic acid]	< 30	64 to 128	< 64	32 to 64	32 to 64
CCN1CCN(C(=O)N[C@@H](C(=O)N[C@H]2Cc3cccc(C(=O)O)c3OB2O)c2ccccc2)C(=O)C1=O [Example 11, (R)-3-((R)-2-(4-ethyl-2,3-dioxopiperazine-1-carboxamido)-2-phenylacetamido)-2-hydroxy-3,4-dihydro-2H-benzo[e][1,2]oxaborinine-8-carboxylic acid]	< 30	64 to 128	< 64	32 to 64	32 to 64
CCN1CCN(C(=O)N[C@@H](C(=O)N[C@H]2Cc3cccc(C(=O)O)c3OB2O)C(C)(C)O)C(=O)C1=O [Example 86, (R)-3-((R)-2-(4-ethyl-2,3-dioxopiperazine-1-carboxamido)-3-hydroxy-3-methylbutanamido)-2-hydroxy-3,4-dihydro-2H-benzo[e][1,2]oxaborinine-8-carboxylic acid]	30 to 500	> 128	< 64	–	32 to 64
Nc1nc(C(NC(=O)N2CCN(CCF)C(=O)C2=O)C(=O)N[C@H]2Cc3cccc(C(=O)O)c3OB2O)cs1 (stereo partly drawn) [Example 52, (3R)-3-(2-(2-aminothiazol-4-yl)-2-(4-(2-fluoroethyl)-2,3-dioxopiperazine-1-carboxamido)acetamido)-2-hydroxy-3,4-dihydro-2H-benzo[e][1,2]oxaborinine-8-carboxylic acid]	30 to 500	64 to 128	< 64	8 to 16	8 to 16
CCCCCCCN1CCN(C(=O)NC(C(=O)N[C@H]2Cc3cccc(C(=O)O)c3OB2O)c2csc(N)n2)C(=O)C1=O (stereo partly drawn) [Example 94, (3R)-3-(2-(2-aminothiazol-4-yl)-2-(4-heptyl-2,3-dioxopiperazine-1-carboxamido)acetamido)-2-hydroxy-3,4-dihydro-2H-benzo[e][1,2]oxaborinine-8-carboxylic acid]	< 30	64 to 128	< 64	–	128 to 256
CC(C)N1CCN(C(=O)NC(C(=O)N[C@H]2Cc3cccc(C(=O)O)c3OB2O)c2csc(N)n2)C(=O)C1=O (stereo partly drawn) [Example 55, (3R)-3-(2-(2-aminothiazol-4-yl)-2-(4-isopropyl-2,3-dioxopiperazine-1-carboxamido)acetamido)-2-hydroxy-3,4-dihydro-2H-benzo[e][1,2]oxaborinine-8-carboxylic acid]	30 to 500	64 to 128	< 64	8 to 16	8 to 16
CCCCN1CCN(C(=O)NC(C(=O)N[C@H]2Cc3cccc(C(=O)O)c3OB2O)c2csc(N)n2)C(=O)C1=O (stereo partly drawn) [Example 53, (3R)-3-(2-(2-aminothiazol-4-yl)-2-(4-butyl-2,3-dioxopiperazine-1-carboxamido)acetamido)-2-hydroxy-3,4-dihydro-2H-benzo[e][1,2]oxaborinine-8-carboxylic acid]	< 30	64 to 128	< 64	32 to 64	32 to 64
CCCCCCN1CCN(C(=O)NC(C(=O)N[C@H]2Cc3cccc(C(=O)O)c3OB2O)c2csc(N)n2)C(=O)C1=O (stereo partly drawn) [Example 93, (3R)-3-(2-(2-aminothiazol-4-yl)-2-(4-hexyl-2,3-dioxopiperazine-1-carboxamido)acetamido)-2-hydroxy-3,4-dihydro-2H-benzo[e][1,2]oxaborinine-8-carboxylic acid]	< 30	64 to 128	< 64	–	128 to 256
